Measurements as given in patent publication US7319110B2, “1H-1,2,4-triazole-3-carboxamide derivatives having cannabinoid-CB1 receptor agonistic, partial agonistic, inverse agonistic or antagonistic activity” (Solvay Pharmaceuticals B.V., priority 2002, dated 2008).

Compound | melting point
Cl.O=C(NN1CCCCC1)c1nc(-c2ccc(Cl)cc2)n(-c2ccc(Cl)cc2Cl)n1 | 238 to 240 °C (dec.)
Cl.O=C(NN1CCOCC1)c1nc(-c2ccc(Cl)cc2Cl)n(-c2ccc(Cl)cc2)n1 | 224 to 226 °C
O=C(NN1CCCCC1)c1nc(-c2ccccn2)n(-c2ccc(Cl)cc2Cl)n1 | 191 to 193 °C
O=C(NN1CCCCC1)c1nc(-c2ccc(Cl)cc2Cl)n(-c2ccc(C(F)(F)F)cc2)n1 | 159 to 161 °C
O=C(NN1CCCCC1)c1nc(-c2cccnc2)n(-c2ccc(Cl)cc2Cl)n1 | 219 °C
CC(C)(C)ONC(=O)c1nc(-c2ccc(Cl)cc2)n(-c2ccc(Cl)cc2Cl)n1 | 150 to 152 °C
O=C(NN1CCOCC1)c1nc(-c2ccc(Cl)cc2)n(-c2ccc(Cl)cc2Cl)n1 | 184 to 186 °C
Cl.O=C(NN1CCCC1)c1nc(-c2ccc(Cl)cc2Cl)n(-c2ccc(Cl)cc2)n1 | 234 to 236 °C (dec.)
Cl.O=C(NN1CCCC1)c1nc(-c2ccc(Cl)cc2)n(-c2ccc(Cl)cc2Cl)n1 [Example 2, 5-(4-Chlorophenyl)-1-(2,4-dichlorophenyl)-N-(pyrrolidin-1-yl)-1H-1,2,4-triazole-3-carboxamide hydrochloride] | 248 to 255 °C (dec.)
O=C(NC1CCCCC1)c1nc(-c2ccc(Cl)cc2)n(-c2ccc(Cl)cc2Cl)n1 [Example 3, 5-(4-Chlorophenyl)-N-cyclohexyl-1-(2,4-dichlorophenyl)-1H-1,2,4-triazole-3-carboxamide] | 186 to 188 °C
